Reference: PubChem BioAssay (NCI)
Values joined by “and” are separate entries in the source; they are usually repeats but may differ in a detail not shown here. Equal entries are not always repeated.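 How tested: cells in 96-well plates exposed to compound for 48 hours at five concentrations. Abbreviation: GI50, concentration required for 50% inhibition of growth. At the TGI there is no net growth.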

Legend:
Experiment in all cases: NCI tumour cell line growth inhibition, 48 h
[1] = test system: MOLT-4 leukemia
[2] = test system: HT29 colon
[3] = test system: LOX IMVI melanoma
[4] = test system: UACC-62 melanoma
[5] = test system: A549 NSCLC
[6] = test system: ACHN renal
[7] = test system: DMS 114 small cell lung
[8] = test system: DMS 273 small cell lung
[9] = test system: MDA-MB-435
[10] = test system: HS 578T breast

SMILES | TGI [1] | TGI [2] [µM] | TGI [3] | TGI [4] [µM] | TGI [5] [µM] | TGI [6] | TGI [7] [µM] | TGI [8] [µM] | GI50 [1] [µM] | GI50 [2] | GI50 [3] | GI50 [4] | GI50 [5] [µM] | GI50 [6] | GI50 [7] | GI50 [8] | TGI [9] [µM] | TGI [10] [µM] | GI50 [9] [µM] | GI50 [10] [µM]
CC(C)CC1CC2C(=O)N(c3ccccc3)C(=O)C2c2[nH]c3ccccc3c21 (stereo unspecified) | > 58.7 µM | > 100 | > 87.8 µM | > 31.6 | > 53.8 | > 87.7 µM | 52.7 | > 100 | – | – | – | – | – | – | – | – | – | – | – | –
CC(=O)CC(=O)Nc1ccc(OS(N)(=O)=O)cc1 | > 100 µM | > 100 | – | > 100 | > 100 | > 100 µM | > 100 | > 100 | – | – | – | – | – | – | – | – | – | – | – | –
CC[C@@]1(O)C(=O)OCc2c1cc1n(c2=O)Cc2cc3c(N)c(OC)ccc3nc2-1 | 0.0711 µM | > 100 | 0.151 µM | 0.0285 | 1.91 | 0.0767 µM | 0.189 | 0.36 | < 0.01 | 0.205 µM | 0.0216 µM | < 0.01 µM | 0.0445 | 0.0255 µM | 0.0252 µM | < 0.0166 µM | – | – | – | –
O=C1C[C@@H]2[C@@H](C=CC23CCCC3)N1O | > 100 µM | > 100 | > 100 µM | > 100 | > 100 | > 100 µM | > 100 | > 100 | – | – | – | – | – | – | – | – | – | – | – | –
O=C1C2C3C=CC(C2C(=O)N1CN1CCOCC1)C1C2C(=O)N(CN4CCOCC4)C(=O)C2C31 (stereo unspecified) | 53.3 µM | > 100 | > 60.9 µM | > 63 | > 86.9 | > 91.5 µM | 34.1 | 33.3 | – | – | – | – | – | – | – | – | > 100 | > 100 | – | –
NNC(=S)N/N=C(\c1nc2ccc(Cl)cc2[nH]c1=O)C(O)c1cccc([N+](=O)[O-])c1 (stereo unspecified) | > 100 µM | > 50.9 | > 56.6 µM | > 100 | > 100 | > 100 µM | > 24.5 | > 58.7 | – | – | – | – | – | – | – | – | – | – | – | –
COc1ccc(C2=NC(CO)[C@H](c3ccccc3)O2)cc1OC (stereo partly specified) | > 100 µM | > 100 | > 100 µM | > 100 | > 100 | > 100 µM | > 100 | > 100 | – | – | – | – | – | – | – | – | – | – | – | –
CCOC(=O)N1C/C(=C\c2ccc(N(C)C)cc2)C(=O)/C(=C/c2ccc(N(C)C)cc2)C1 | > 100 µM | > 100 | > 100 µM | > 100 | > 100 | > 100 µM | > 100 | > 100 | – | – | – | – | – | – | – | – | – | – | – | –
NC(=O)c1c(-c2ccccc2)c(-c2ccccc2)cc2c(=O)c3ccccc3[nH]c12 | 44.7 µM | 42.9 | > 100 µM | 96.8 | 50.6 | 37.7 µM | 56.8 | 46.6 | – | – | – | – | – | – | – | – | – | – | – | –
CC[P+](C)(C)CC | > 100 µM | > 100 | > 100 µM | > 100 | > 100 | > 100 µM | > 100 | > 100 | – | – | – | – | – | – | – | – | – | – | – | –
COc1cc(Br)c(C=Nc2cccc3ccc(OS(=O)(=O)c4ccc([N+](=O)[O-])cc4)cc23)cc1OC | > 100 µM | > 100 | > 100 µM | > 100 | > 100 | > 100 µM | > 100 | – | – | – | – | – | – | – | – | – | – | – | – | –
N/N=C1\C(=O)N(c2ccc(Cl)c(Cl)c2)C(=O)C1C(=O)Nc1ccc(Cl)c(Cl)c1 (stereo unspecified) | > 100 µM | > 100 | – | > 100 | > 100 | > 100 µM | > 100 | – | – | – | – | – | – | – | – | – | – | – | – | –
CCOC(=O)C(c1ccsc1)P(=O)(OCC)OCC (stereo unspecified) | > 100 µM | 39.7 | 19.3 µM | 23.9 | 55.8 | 53 µM | 29 | 26.8 | – | – | – | – | – | – | – | – | – | – | – | –
COc1ccc(-c2cc(-c3ccco3)c(C#N)c(=O)n2C2OC(COC(C)=O)C(OC(C)=O)C(OC(C)=O)C2OC(C)=O)cc1 (stereo unspecified) | > 100 µM | > 100 | > 100 µM and 59.6 µM | > 100 | > 100 | > 100 µM | > 100 | > 100 | – | > 100 µM and 28.6 µM | 59.4 µM and 14.1 µM | > 100 µM and 17.2 µM | – | > 100 µM and 31.1 µM | > 100 µM and 21.6 µM | – | – | – | – | –
CN(C)c1ccc(-c2nc(N)nc3c2CCCC3)cc1 | > 100 µM | – | > 100 µM | > 100 | > 100 | 76.9 µM | > 100 | > 100 | – | – | – | – | – | – | – | – | – | – | – | –
CN1C=C(C(N)=O)Cc2ccsc21 | > 100 µM | > 100 | – | > 100 | > 100 | > 100 µM | > 100 | > 100 | – | – | – | – | – | – | – | – | – | – | – | –

SMILES | TGI [1] | TGI [2] [µM] | TGI [3] | TGI [4] [µM] | TGI [5] [µM] | TGI [6] | TGI [7] [µM] | TGI [8] [µM] | GI50 [1] [µM] | GI50 [2] | GI50 [3] | GI50 [4] | GI50 [5] [µM] | GI50 [6] | GI50 [7] | GI50 [8] | TGI [9] [µM] | TGI [10] [µM] | GI50 [9] [µM] | GI50 [10] [µM]
Cc1ccc(C)c(NC(=O)C(=O)C(C2C(C)CC(=O)C2CC(=O)O)[N+](=O)[O-])c1 (stereo unspecified) | > 100 µM | > 100 | > 100 µM | > 100 | > 100 | > 100 µM | > 100 | – | – | – | – | – | – | – | – | – | – | – | – | –
CCCCCCCCCCCCNC(=S)OCCCC | 52.4 µM | > 100 | 35.8 µM | > 100 | > 100 | > 100 µM | > 100 | > 100 | – | – | – | – | – | – | – | – | – | – | – | –
O=C1/C(=C/c2ccccc2)CN(C(=O)/C=C/c2ccccc2)C/C1=C\c1ccccc1 | 35.4 µM | 11.8 | 7.1 µM | 16.2 | 37.2 | 38.5 µM | > 43.8 | > 100 | – | – | – | – | – | – | – | – | 3.74 | > 100 | – | –
Nc1ncnc2c1ncn2C1(CO)OC(CO)C(O)C1O (stereo unspecified) | > 100 µM | > 100 | > 100 µM | – | > 100 | > 100 µM | > 100 | > 100 | – | – | – | – | – | – | – | – | – | – | – | –
Cc1ccccc1-c1cc(=O)c2cc(C)c(C)c(C(=O)O)c2o1 | > 100 µM | > 100 | > 100 µM | > 100 | > 100 | > 100 µM | > 100 | > 100 | – | – | – | – | – | – | – | – | – | – | – | –
O=S(=O)(c1ccccc1)C1(C2(S(=O)(=O)c3ccccc3)CCN=N2)CCN=N1 (stereo unspecified) | > 100 µM | > 100 | > 100 µM | – | > 100 | > 100 µM | > 100 | > 100 | – | – | – | – | – | – | – | – | – | – | – | –
CCOC(=O)c1ccc(N[C@@H]2c3cc4c(cc3C(c3cc(OC)c(O)c(OC)c3)[C@H]3C(=O)OCC32)OCO4)cc1 (stereo partly specified) | 0.219 µM and 0.158 µM | 6.92 | 1.61 µM | 4.08 | 2.76 | 0.75 µM and 1.44 µM | 3.65 | 3.85 | 0.0271 | 0.949 µM | 0.217 µM and 0.118 µM | 0.382 µM | 0.103 | 0.161 µM | 0.326 µM | 0.134 µM and 0.156 µM | > 100 | – | – | –
C=CCN=C1NC(=O)C(CC(=O)Nc2ccc([N+](=O)[O-])cc2[N+](=O)[O-])S1 (stereo unspecified) | > 100 µM | > 100 | – | > 100 | > 100 | > 100 µM | > 100 | > 100 | – | – | – | – | – | – | – | – | – | – | – | –
COc1ccc(C)cc1-c1ccc(-c2cc(C)ccc2OC)o1 | > 100 µM | > 100 | > 100 µM | > 100 | > 100 | > 100 µM | > 100 | > 100 | – | – | – | – | – | – | – | – | – | – | – | –
CCCOC(=O)C1C(c2ccc(OC)cc2)NC(c2ccc(OC)cc2)C(C(=O)OCCC)S1(=O)=O (stereo unspecified) | > 100 µM | > 100 | – | > 100 | > 100 | > 100 µM | > 100 | > 100 | > 100 | > 100 µM | – | > 100 µM | > 100 | > 100 µM | > 100 µM | > 100 µM | – | – | – | –
CC1(C)CCOC(Sc2ccccc2)C1 (stereo unspecified) | > 100 µM | – | > 100 µM | > 100 | > 100 | > 100 µM | > 100 | > 100 | – | – | – | – | – | – | – | – | – | – | – | –
O=C1c2ccccc2C(=O)N1CCN(CCN1C(=O)c2ccccc2C1=O)Cc1ccccc1 | > 100 µM | – | > 100 µM | > 100 | > 100 | > 100 µM | > 100 | > 100 | – | – | – | – | – | – | – | – | – | – | – | –
O=C1CC2=CCCC2O1 (stereo unspecified) | > 100 µM | > 100 | > 100 µM | > 100 | > 100 | – | > 100 | > 100 | – | – | – | – | – | – | – | – | – | – | – | –
O=C1C=C(c2ccccc2)NC1(c1ccccc1)c1cc(-c2ccccc2)[nH]c1-c1ccccc1 (stereo unspecified) | > 100 µM | > 100 | – | > 100 | > 100 | > 100 µM | > 100 | > 100 | – | – | – | – | – | – | – | – | – | – | – | –
COC(=O)N1C=CC2=C(C)C3Nc4ccccc4C3C(C)=C2C1 (stereo unspecified) | 12.3 µM | > 100 | 20.1 µM | 6.89 | 16.8 | 5.01 µM | > 100 | 11.7 | – | – | – | – | – | – | – | – | – | – | – | –
COc1cccc2c1C(=O)c1c(O)c3c(c(O)c1C2=O)C[C@@](O)(C(=O)CO)C[C@@H]3OC1CC2C(OCN2CN2COC3C(C)OC(O[C@H]4C[C@](O)(C(=O)CO)Cc5c(O)c6c(c(O)c54)C(=O)c4c(OC)cccc4C6=O)CC32)C(C)O1 (stereo partly specified) | 0.00801 µM | 0.115 | 0.0328 µM | 0.0159 | – | 0.0345 µM | – | – | 0.000203 | 0.00717 µM | 0.002 µM | 0.0032 µM | 0.0056 | 0.00194 µM | – | – | 0.0391 | > 1 | 0.013 | 0.0394
